Assay results from the supplement of paper PMC10307832.

Experiments:
Assay in all cases: relative viability (nuclei count vs DMSO), 5 days (fraction); higher = more cells survive
[1] = compound: C1=CC2=C(C=CC(=C2)C=C3C(=O)NC(=NCC4=CC=CS4)S3)N=C1 [RO-3306] + CCNC(=O)c1noc(-c2cc(C(C)C)c(O)cc2O)c1-c1ccc(CN2CCOCC2)cc1 [Luminespib] (partner 0.01 µM)
How it was run: (§1)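 Cells from lung cancer lines were seeded into 1536-well plates and, one day later, dosed by pin tool. Treatments were either a single drug or a fixed dose of an anchor drug with five library-drug doses (not always all listed) in √10 steps. After 5 days, nuclei were stained in a one-step fixation (final 0.05% Triton X-100, 1% formaldehyde, 1 ug/ml Hoechst) and counted on 4× images, and relative viability is the treated-to-vehicle nuclei ratio, as the median of duplicate plates.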

[2] = compound: C1=CC2=C(C=CC(=C2)C=C3C(=O)NC(=NCC4=CC=CS4)S3)N=C1 [RO-3306] + CS(=O)(=O)CCNCc1ccc(-c2ccc3ncnc(Nc4ccc(OCc5cccc(F)c5)c(Cl)c4)c3c2)o1 [Lapatinib] (partner 2 µM)
How it was run: as §1

[3] = compound: O=S(=O)(c1ccccc1)N(CC(F)(F)F)c1ccc(C(O)(C(F)(F)F)C(F)(F)F)cc1 + Cc1nc(NC(=O)N2CCC[C@H]2C(N)=O)sc1-c1ccnc(C(C)(C)C(F)(F)F)c1 [Alpelisib] (partner 2 µM)
How it was run: as §1

[4] = compound: C1=CC2=C(C=CC(=C2)C=C3C(=O)NC(=NCC4=CC=CS4)S3)N=C1 [RO-3306] + COc1cc2c(Oc3ccc(NC(=O)C4(C(=O)Nc5ccc(F)cc5)CC4)cc3F)ccnc2cc1OCCCN1CCOCC1 [Foretinib] (partner 0.25 µM)
How it was run: as §1

Cell Line	relative viability ([1]; first compound 0.01 µM)	relative viability ([1]; first compound 0.03162 µM)	relative viability ([1]; first compound 0.1 µM)	relative viability ([1]; first compound 0.3162 µM)	relative viability ([1]; first compound 1 µM)	relative viability ([2]; first compound 0.01 µM)	relative viability ([2]; first compound 0.03162 µM)	relative viability ([2]; first compound 0.1 µM)	relative viability ([2]; first compound 0.3162 µM)	relative viability ([2]; first compound 1 µM)	relative viability ([3]; first compound 0.8 µM)	relative viability ([3]; first compound 2.53 µM)	relative viability ([3]; first compound 8 µM)	relative viability ([4]; first compound 0.01 µM)	relative viability ([4]; first compound 0.03162 µM)	relative viability ([4]; first compound 0.1 µM)	relative viability ([4]; first compound 0.3162 µM)	relative viability ([4]; first compound 1 µM)
NCI-H2087	0.196	0.175	0.149	0.23	0.17	0.894	1.12	1.02	0.968	0.889	1.16	1.11	0.972	0.985	1.01	1.13	1.24	0.982
NCI-H2126	0.867	0.858	0.895	1	0.949	0.644	0.719	0.742	0.76	0.747	0.878	0.768	0.773	1.58	0.914	1.26	1.19	1.01
NCI-H2170	0.485	0.803	0.419	0.669	0.639	0.254	0.302	0.272	0.265	0.302	0.961	0.804	0.798	0.929	0.925	0.98	1.11	0.985
NCI-H2228	0.2	0.148	0.147	0.14	0.255	1.24	0.574	0.942	0.826	0.542	0.88	0.491	0.502	0.759	0.808	0.954	0.641	0.635
NCI-H2347	1.03	0.43	0.825	0.253	0.575	0.914	0.932	0.969	0.897	0.91	1.25	1.2	1.04	0.982	0.503	0.868	0.702	0.741
NCI-H2405	0.753	0.705	0.849	0.607	0.7	1.03	1.04	1.01	1.09	1.01	0.877	0.795	0.868	1.05	1.06	1.03	1.03	0.961
NCI-H3122	0.113	0.108	0.0505	0.101	0.122	1.1	1	1.02	0.997	0.827	0.744	0.627	0.672	0.987	0.984	0.94	0.969	1.09
PC-3 [JPC-3]	0.642	0.638	0.778	0.667	0.864	0.469	0.445	0.389	0.439	0.435	1.18	0.995	1.02	1.01	1	1.01	1.07	1.03
PC-14	0.251	0.147	0.161	0.139	0.15	0.326	0.395	0.312	0.317	0.295	0.829	0.697	0.525	0.968	0.739	0.935	1.04	0.917
RERF-LC-KJ	1.15	1.41	1.17	1.45	0.99	0.861	0.842	0.828	0.864	0.702	0.857	0.701	0.858	0.844	0.683	0.795	0.906	0.958
SK-LU-1	0.184	0.194	0.179	0.202	0.166	1.07	0.812	0.842	0.902	0.797	1.16	1.23	0.903	0.853	0.783	0.831	0.778	0.712
SK-MES-1	0.708	0.973	0.705	0.605	0.968	0.449	0.472	0.444	0.505	0.471	0.827	0.789	0.848	1.06	0.425	0.996	0.782	0.976
SW 1573	0.205	0.218	0.198	0.302	0.217	1.11	1.01	1.17	1.12	0.947	0.889	0.697	0.757	0.89	0.879	0.934	0.993	0.887
